# According to patent US8846746B2, “Pyrazole compound and pharmaceutical use thereof” (Japan Tobacco Inc., priority 2011, dated 2014):
# Molecular target: human SGLT1 (Homo sapiens (Human), UniProt P13866)
# Assay: SGLT1 inhibitory activity: 14C-AMG uptake into CHO-K1 cell line stably expressing human SGLT1
# Format: cell-based
# Conditions: 14C-AMG uptake, CHO-K1 cells expressing human SGLT1
# Protocol: SGLT1 inhibitory activity of a test compound (IC50 value) was calculated based on an amount of intake into a cell of labeled α-methyl-D-glucopyranoside (^14C-AMG) which is transported by SGLT1.
# 1) Construction of Human SGLT1 Expression Plasmid
# A DNA fragment containing human SGLT1, wherein NheI recognition and cleavage sequence was added upstream of a Kozac consensus sequence of the vector; and a stop codon (TAG) and a SalI recognition and cleavage sequence was added just downstream of a coding region of the human SGLT1, was amplified by PCR using pCMV6-hSGLT1 (OriGene) as a template. The purified DNA fragment was cleaved by restriction enzymes NheI and SalI, and the obtained fragment was ligated into pcDNA3.1 (+) which was cleaved by NheI and XhoI to construct human SGLT1 expression plasmid.
# 2) Establishment of Stable Cell Lines Expressing Human SGLT1
# A human SGLT1 expression plasmid pcDNA-hSGLT1 was transfected into CHO-K1 cells by Lipofectamine-2000 (Invitrogen). The cells were cultured in the presence of G418 (Nakalai tesque) and drug-resistant cells were selected. A cell line having the highest S/B ratio of an amount of ^14C-AMG uptake per cell treated by solvent to an amount of ^14C-AMG uptake per cell treated by phlorizin (SGLT inhibitor) was selected from the drug-resistant cells as a stable cell lines expressing human SGLT1.
# 3) Evaluation of SGLT1 Inhibitory Activity
# The stable cell line expressing human SGLT1 was seeded at 5×10^4 cells/well on BioCoat™ Poly-D-Lysine 96 well plate with Lid (Becton Dickinson and Company) and cultured at 37° C. under 5% CO2 overnight. The medium was replaced with 100 μL/well of a Na (−) buffer (140 mM choline chloride, 2 mM KCl, 1 mM MgCl2, 1 mM CaCl2, 10 mM HEPES, 5 mM Tris, pH7.4) followed by incubation for 20 minutes at 37° C. under 5% CO2. After removing the Na (−) buffer, a test compound solution which was prepared from Na (+) buffer (140 mM NaCl, 2 mM KCl, 1 mM MgCl2, 1 mM CaCl2, 10 mM HEPES, 5 mM Tris, pH7.4) containing BSA was added thereto at 40 μL/well. In addition, Na (+) buffer containing 8 kBq of ^14C-AMG and 2 mM AMG was added thereto at 40 μL/well, and was mixed well. Na (−) buffer containing BSA was added to a blank well at 40 μL/well and additionally adding a Na (+) buffer containing 8 kBq of ^14C-AMG and 2 mM AMG, and was mixed well. Cells were incubated for 1 hour at 37° C. under 5% CO2. After the reaction, the cells were washed twice with 100 μL/well of iced wash buffer (100 mM AMG, 140 mM choline chloride, 2 mM KCl, 1 mM MgCl2, 1 mM CaCl2, 10 mM HEPES, 5 mM Tris, pH7.4), then lysed in 50 μL/well of a 0.2N aqueous solution of NaOH. The cell lysate was transferred to OptiPlate96 (Perkin-Elmer) and 100 μL/well of MicroScint-40 (Perkin-Elmer) was dispensed. The radioactivity was counted by TOPCOUNT NXT (Perkin-Elmer).
# A data was obtained by deducting the average value (CPM) of blank wells from the average value (CPM) of each treated well. The inhibition ratio (%) was calculated by the following formula: inhibition rate (%)=[(A−B)/A]×100, where A is a data of the solvent control, and B is a data of a test compound.
# Sequence of human SGLT1 (P13866 whole entry): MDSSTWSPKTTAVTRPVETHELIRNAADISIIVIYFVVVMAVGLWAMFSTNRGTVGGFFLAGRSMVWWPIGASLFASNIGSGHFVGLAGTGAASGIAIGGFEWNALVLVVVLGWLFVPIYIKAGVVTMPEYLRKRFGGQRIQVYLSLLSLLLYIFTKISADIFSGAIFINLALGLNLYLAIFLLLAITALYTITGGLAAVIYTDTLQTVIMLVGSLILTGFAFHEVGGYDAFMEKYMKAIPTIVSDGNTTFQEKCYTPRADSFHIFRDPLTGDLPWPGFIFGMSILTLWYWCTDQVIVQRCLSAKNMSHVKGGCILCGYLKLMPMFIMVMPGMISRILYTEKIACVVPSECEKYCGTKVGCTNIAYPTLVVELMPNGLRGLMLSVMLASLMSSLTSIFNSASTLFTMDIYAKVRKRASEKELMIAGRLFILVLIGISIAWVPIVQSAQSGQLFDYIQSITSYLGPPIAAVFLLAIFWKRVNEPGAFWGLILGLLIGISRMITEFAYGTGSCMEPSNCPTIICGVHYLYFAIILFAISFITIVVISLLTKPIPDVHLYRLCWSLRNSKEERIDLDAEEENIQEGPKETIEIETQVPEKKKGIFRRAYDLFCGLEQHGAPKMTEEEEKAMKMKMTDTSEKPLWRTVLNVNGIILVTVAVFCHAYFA
row,IC50 [nM],SMILES
1,6.2,"C[C@H]1C(=O)NC[C@@H]1C(=O)Nc1cc(-c2cccc(OC(F)(F)F)c2)n(-c2cccc(F)c2)n1 [Example 3, (3R,4R)-4-methyl-5-oxopyrrolidine-3-carboxylic acid[1-(3-fluorophenyl)-5-(3-(trifluoromethoxy)phenyl)-1H-pyrazol-3-yl]amide]"
2,8.6,"O=C1C[C@@H](C(=O)Nc2cc(-c3cccc(OC(F)(F)F)c3)n(-c3ccccc3)n2)CN1 [Example 4, (R)-5-oxopyrrolidine-3-carboxylic acid[1-phenyl-5-(3-trifluoromethoxyphenyl)-1H-pyrazol-3-yl]amide]"
3,7.2,"CCCc1cccc(-c2cc(NC(=O)[C@H]3CNC(=O)N3C)nn2-c2ccccc2)c1 [Example 6, (R)-3-methyl-2-oxoimidazolidine-4-carboxylic acid [1-phenyl-5-(3-propylphenyl)-1H-pyrazol-3-yl]amide]"
4,20,"CCCc1cccc(-c2cc(NC(=O)[C@H]3CNC(=O)N3)nn2-c2ccccc2)c1 [Example 8, (R)-2-oxoimidazolidine-4-carboxylic acid[1-phenyl-5-(3-propylphenyl)-1H-pyrazol-3-yl]amide]"
5,4.7,CCCc1cccc(-c2cc(NC(=O)[C@H]3CNC(=O)C3)nn2-c2ccccc2)c1 [Example 22]
6,7.4,CCCc1cccc(-c2cc(NC(=O)[C@@H]3CNC(=O)C3)nn2-c2ccccc2)c1 [Example 23]
7,1.8,CC(C)(C)c1cccc(-c2cc(NC(=O)[C@H]3CNC(=O)C3)nn2-c2ccccc2)c1 [Example 25]
8,3.5,CC(C)(C)c1cccc(-c2cc(NC(=O)[C@@H]3CNC(=O)C3)nn2-c2ccccc2)c1 [Example 26]
9,23,O=C1C[C@@H](C(=O)Nc2cc(-c3cccc(C(F)(F)F)c3)n(-c3ccccc3)n2)CN1 [Example 27]
10,52,O=C1C[C@H](C(=O)Nc2cc(-c3cccc(C(F)(F)F)c3)n(-c3ccccc3)n2)CN1 [Example 28]
11,24,O=C1C[C@H](C(=O)Nc2cc(-c3cccc(OC(F)(F)F)c3)n(-c3ccccc3)n2)CN1 [Example 29]
12,95,CCOc1cccc(-c2cc(NC(=O)[C@H]3CNC(=O)C3)nn2-c2ccccc2)c1 [Example 30]
13,270,CCOc1cccc(-c2cc(NC(=O)[C@@H]3CNC(=O)C3)nn2-c2ccccc2)c1 [Example 31]
14,6.8,CCCc1cccc(-c2cc(NC(=O)[C@H]3CNC(=O)C3)nn2-c2ccc(F)cc2)c1 [Example 34]
15,15,CCCc1cccc(-c2cc(NC(=O)[C@@H]3CNC(=O)C3)nn2-c2ccc(F)cc2)c1 [Example 35]
16,9.4,CCCc1cccc(-c2cc(NC(=O)[C@H]3CNC(=O)C3)nn2-c2ccc(Cl)cc2)c1 [Example 36]
17,16,CCCc1cccc(-c2cc(NC(=O)[C@@H]3CNC(=O)C3)nn2-c2ccc(Cl)cc2)c1 [Example 37]
18,130,O=C1C[C@@H](C(=O)Nc2cc(-c3cccc(Cl)c3)n(-c3ccccc3)n2)CN1 [Example 38]
19,350,O=C1C[C@H](C(=O)Nc2cc(-c3cccc(Cl)c3)n(-c3ccccc3)n2)CN1 [Example 39]
20,650,O=C1C[C@@H](C(=O)Nc2cc(C3CCCCC3)n(-c3ccccc3)n2)CN1 [Example 40]
21,1900,O=C1C[C@H](C(=O)Nc2cc(C3CCCCC3)n(-c3ccccc3)n2)CN1 [Example 41]
22,11,CCc1cccc(-c2cc(NC(=O)[C@H]3CNC(=O)C3)nn2-c2ccccc2)c1 [Example 43]
23,34,CCc1cccc(-c2cc(NC(=O)[C@@H]3CNC(=O)C3)nn2-c2ccccc2)c1 [Example 44]
24,4.3,CCCCc1cccc(-c2cc(NC(=O)[C@H]3CNC(=O)C3)nn2-c2ccccc2)c1 [Example 45]
25,3.7,CCCCc1cccc(-c2cc(NC(=O)[C@@H]3CNC(=O)C3)nn2-c2ccccc2)c1 [Example 46]
26,420,O=C1C[C@@H](C(=O)Nc2cc(C3=CCCCC3)n(-c3ccccc3)n2)CN1 [Example 47]
27,3.5,CCCc1cccc(-c2cc(NC(=O)[C@H]3CNC(=O)C3)nn2-c2ccc(C)cc2)c1 [Example 48]
28,12,CCCc1cccc(-c2cc(NC(=O)[C@@H]3CNC(=O)C3)nn2-c2ccc(C)cc2)c1 [Example 49]

row,IC50 [nM],SMILES
1,22,CCCc1cc(-c2cc(NC(=O)[C@H]3CNC(=O)C3)nn2-c2ccccc2)ccc1F [Example 50]
2,80,CCCc1cc(-c2cc(NC(=O)[C@@H]3CNC(=O)C3)nn2-c2ccccc2)ccc1F [Example 51]
3,3.7,CCC(C)(C)c1cccc(-c2cc(NC(=O)[C@H]3CNC(=O)C3)nn2-c2ccccc2)c1 [Example 52]
4,3.8,CCC(C)(C)c1cccc(-c2cc(NC(=O)[C@@H]3CNC(=O)C3)nn2-c2ccccc2)c1 [Example 53]
5,10,CC(C)c1cccc(-c2cc(NC(=O)[C@H]3CNC(=O)C3)nn2-c2ccccc2)c1 [Example 54]
6,18,CC(C)c1cccc(-c2cc(NC(=O)[C@@H]3CNC(=O)C3)nn2-c2ccccc2)c1 [Example 55]
7,14300,Cc1ccccc1-c1cc(NC(=O)[C@H]2CNC(=O)C2)nn1-c1ccccc1 [Example 56]
8,230,Cc1cccc(-c2cc(NC(=O)[C@H]3CNC(=O)C3)nn2-c2ccccc2)c1 [Example 57]
9,3500,Cc1ccc(-c2cc(NC(=O)[C@H]3CNC(=O)C3)nn2-c2ccccc2)cc1 [Example 58]
10,470,O=C1C[C@@H](C(=O)Nc2cc(C3CCCCCC3)n(-c3ccccc3)n2)CN1 [Example 62]
11,2400,O=C1C[C@@H](C(=O)Nc2cc(C3CCCC3)n(-c3ccccc3)n2)CN1 [Example 63]
12,12,CCCc1cccc(-c2cc(NC(=O)[C@H]3CNC(=O)C3)nn2C2CCCC2)c1 [Example 64]
13,40,CCCc1cccc(-c2cc(NC(=O)[C@@H]3CNC(=O)C3)nn2C2CCCC2)c1 [Example 65]
14,210,CCCc1cccc(-c2cc(NC(=O)[C@H]3CNC(=O)C3)nn2CC(F)(F)F)c1 [Example 66]
15,6.7,CCCc1cccc(-c2cc(NC(=O)[C@H]3CNC(=O)C3)nn2C2CCCCCC2)c1 [Example 68]
16,18,CCCc1cccc(-c2cc(NC(=O)[C@@H]3CNC(=O)C3)nn2C2CCCCCC2)c1 [Example 69]
17,1.6,CC(C)Cc1cccc(-c2cc(NC(=O)[C@H]3CNC(=O)C3)nn2-c2ccccc2)c1 [Example 70]
18,3.5,CC(C)Cc1cccc(-c2cc(NC(=O)[C@@H]3CNC(=O)C3)nn2-c2ccccc2)c1 [Example 71]
19,4.7,CCC(F)(F)c1cccc(-c2cc(NC(=O)[C@H]3CNC(=O)C3)nn2-c2ccccc2)c1 [Example 72]
20,13,CCC(F)(F)c1cccc(-c2cc(NC(=O)[C@@H]3CNC(=O)C3)nn2-c2ccccc2)c1 [Example 73]
21,3.1,CCCc1cc(F)cc(-c2cc(NC(=O)[C@H]3CNC(=O)C3)nn2-c2ccccc2)c1 [Example 74]
22,3.9,CCCc1cc(F)cc(-c2cc(NC(=O)[C@@H]3CNC(=O)C3)nn2-c2ccccc2)c1 [Example 75]
23,1.7,CCCc1cccc(-c2cc(NC(=O)[C@H]3CNC(=O)C3)nn2-c2cccc(C)c2)c1 [Example 76]
24,2,CCCc1cccc(-c2cc(NC(=O)[C@@H]3CNC(=O)C3)nn2-c2cccc(C)c2)c1 [Example 77]
25,7.7,CC1(C)CCC=C(c2cc(NC(=O)[C@H]3CNC(=O)C3)nn2-c2ccccc2)C1 [Example 78]
26,22,CC1(C)C=C(c2cc(NC(=O)[C@H]3CNC(=O)C3)nn2-c2ccccc2)CCC1 [Example 79]
27,220,CC(C)(O)c1cccc(-c2cc(NC(=O)[C@H]3CNC(=O)C3)nn2-c2ccccc2)c1 [Example 80]

# Same assay, conditions: CHO-K1, at 0.1 uM
row,inhibition at 0.1 µM [%],SMILES
1,29,CCCc1cccc(-c2cc(NC(=O)[C@@H]3CNC(=O)C3)nn2CC(F)(F)F)c1 [Example 67]
